Where two headings read alike, the source gives them in different places.
Legend:
[1] = Urine PK, Part A single oral doses in healthy participants; format: in vivo, human; conditions: for CL renal: human
Experimental: A further two cohorts were recruited. […] Each individual participated in one treatment period only, with the exception of the food-effect cohort (cohort A3) in which there were two treatment periods separated by at least 7 days washout. Participants resided at the Clinical Research Unit (CRU) from 1 day ahead of dosing (day − 1) to day 3 and returned for a follow-up visit 5–7 days after their final dose. For all cohorts, doses were administered in the fasted state in the morning of day 1 of Treatment Period 1. In the food-effect cohort, doses were given 30 min after the start of a high-fat breakfast (973 calories total: approximately 150 protein calories, 250 carbohydrate calories, and 500–600 fat calories) on day 1 of Treatment Period 2. For cohorts A1 to A5 in Treatment Period 1, dosing occurred such that one pair (one active and one placebo) were dosed at least 24 h before the remaining participants. Continuation to dose those who remained was at the investigator’s discretion. Escalating doses were administered following satisfactory sponsor and investigator review of the safety and tolerability data (up to 48 h post-final dose) and PK data (up to 24 h post-final dose) from the lower dose levels.
Urine was collected by spot collection in Part A only before dosing and between 0–6, 6–12, 12–24, and 24–48 h post-dose. Blood and urine aliquots were stored in polypropylene tubes at − 70 °C until bioanalysis.
Noncompartmental PK analysis was performed on individual plasma and urine concentration data, using Phoenix® WinNonlin® 8.1 software (Certara USA Inc., Princeton NJ). Plasma PK parameter endpoints for Part A included area under the plasma concentration–time curve (AUC) from time 0 to infinity (AUC0–∞), AUC from time 0 to the time of the last quantifiable concentration (AUC0–tlast), maximum observed plasma concentration (Cmax), time of the maximum observed plasma concentration (Tmax), terminal half-life in plasma (t½), apparent total plasma clearance (CL/F), and apparent volume of distribution (Vz/F). Urine PK parameters calculated in Part A included amount of drug excreted in urine (Ae), percentage of dose excreted unchanged in urine (fe) and renal clearance (CLR).

[2] = system: liver fibrosis; parameters: method as in PMID 36154172; conditions: CCl4-induced; cited from earlier work
[3] = single dose 5 mg (1 × 5 mg), fasted
[4] = single dose 20 mg (4 × 5 mg), fasted
[5] = single dose 50 mg (1 × 50 mg), fasted
[6] = single dose 50 mg (1 × 50 mg), fed
[7] = single dose 50 mg (10 × 5 mg), fasted
[8] = single dose 100 mg (2 × 50 mg), fasted
[9] = single dose 200 mg (4 × 50 mg), fasted
[10] = single dose 400 mg (8 × 50 mg), fasted

OC[C@H]1O[C@H](Sc2cncc(Br)c2)[C@H](O)[C@@H](n2cc(-c3cc(F)c(F)c(F)c3)nn2)[C@H]1O [GB1211]
Geometric mean fe(0–48 h), range across doses ([1]; 5–50 mg dose range (5 mg capsule)): 26.8–30.0% | Geometric mean fe(0–48 h), range across doses ([1]; 50–400 mg dose range (50 mg capsules; fasted state)): 10.5–18.7% | Renal elimination mechanism ([1]; CLR greater than GFR corrected for fu): undergoes active secretion in the kidney | Glomerular filtration rate corrected for the fraction of unbound GB1211 in plasma ([1]; GFR approximately 7.5 L/h, fu 5.34%): approximately 0.4 L/h | CL renal ([1]; urine and plasma, po, single oral dose, read-out: Geometric mean CLR, range across all doses): 30.5 to 44.5 mL/min | CL renal ([1]; urine, oral, 5 mg, single dose 5 mg (1 × 5 mg), fasted, read-out: CLR, geometric mean (CV%) (converted)): 35.3 mL/min | CL renal ([1]; urine, oral, 20 mg, single dose 20 mg (4 × 5 mg), fasted, read-out: CLR, geometric mean (CV%) (converted)): 31.7 mL/min | CL renal ([1]; urine, oral, 50 mg, single dose 50 mg (1 × 50 mg), fasted, read-out: CLR, geometric mean (CV%) (converted)): 37.3 mL/min | CL renal ([1]; urine, oral, 50 mg, single dose 50 mg (1 × 50 mg), fed, read-out: CLR, geometric mean (CV%) (converted)): 36.7 mL/min | CL renal ([1]; urine, oral, 50 mg, single dose 50 mg (10 × 5 mg), fasted, read-out: CLR, geometric mean (CV%) (converted)): 32.3 mL/min | CL renal ([1]; urine, oral, 100 mg, single dose 100 mg (2 × 50 mg), fasted, read-out: CLR, geometric mean (CV%) (converted)): 43.2 mL/min | CL renal ([1]; urine, oral, 200 mg, single dose 200 mg (4 × 50 mg), fasted, read-out: CLR, geometric mean (CV%) (converted)): 30.5 mL/min | CL renal ([1]; urine, oral, 400 mg, single dose 400 mg (8 × 50 mg), fasted, read-out: CLR, geometric mean (CV%) (converted)): 44.5 mL/min | Ae (0–48 h), geometric mean (CV%) [1, 3]: 1.43 (27.0) mg | fe (0–48 h), geometric mean (CV%) [1, 3]: 28.7 (27.0) % | Ae (0–48 h), geometric mean (CV%) [1, 4]: 6.00 (19.7) mg | fe (0–48 h), geometric mean (CV%) [1, 4]: 30.0 (19.7) % | Ae (0–48 h), geometric mean (CV%) [1, 5]: 9.34 (44.1) mg | fe (0–48 h), geometric mean (CV%) [1, 5]: 18.7 (44.1) % | Ae (0–48 h), geometric mean (CV%) [1, 6]: 10.9 (33.5) mg | fe (0–48 h), geometric mean (CV%) [1, 6]: 21.7 (33.5) % | Ae (0–48 h), geometric mean (CV%) [1, 7]: 13.4 (38.7) mg | fe (0–48 h), geometric mean (CV%) [1, 7]: 26.8 (38.7) % | Ae (0–48 h), geometric mean (CV%) [1, 8]: 15.3 (34.8) mg | fe (0–48 h), geometric mean (CV%) [1, 8]: 15.3 (34.8) % | Ae (0–48 h), geometric mean (CV%) [1, 9]: 21.0 (28.0) mg | fe (0–48 h), geometric mean (CV%) [1, 9]: 10.5 (28.0) % | Ae (0–48 h), geometric mean (CV%) [1, 10]: 50.7 (33.6) mg | fe (0–48 h), geometric mean (CV%) [1, 10]: 12.7 (33.6) % | Fibrosis in vivo, liver [2]: reducing fibrosis

Reference: paper PMC10010643 (Cancer Chemotherapy and Pharmacology, 2023)
